Our source for the IC50 values is patent publication US7763728B2, “Tetrahydropyridothiophenes” (4SC AG, priority 2005, dated 2010).

For experiment [1], the system named is RKO (RKOp27) human colon adenocarcinoma cells. Briefly: Alamar Blue cell viability assay, anti-proliferative/cytotoxic activity on proliferating (uninduced) RKOp27 cells. In kind it is cell-based. As to conditions: 72 hours incubation, absence of the inducer Ponasterone A, read-out: IC50 RKO p27 uninduced (proliferating). Here is the method: The anti-proliferative/cytotoxic activity of the compounds described herein, can be tested on subclones of RKO (RKOp27) human colon adenocarcinoma cells (Schmidt et al., Oncogene 19, 2423-2429; 2000) using the Alamar Blue cell viability assay (described in O'Brien et al. Eur J Biochem 267, 5421-5426, 2000). The compounds are dissolved as 20 mM solutions in dimethylsulfoxide (DMSO) and subsequently diluted in semi-logarithmic steps. DMSO dilutions are further diluted 1:100 into Dulbecco's modified Eagle's medium (DMEM) containing 10% fetal calf serum to a final concentration twice as much as the final concentration in the test. RKO subclones are seeded into 96 well flat bottom plates at a density of 5000 cells per well in a volume of 50 μl per well. 24 hours after seeding the 50 μl each of the compound dilutions in DMEM medium are added into each well of the 96 Well plate. Each compound dilution is tested as quadruplicates. Wells containing untreated control cells are filled with 50 μl DMEM medium containing 1% DMSO. The cells are then incubated with the substances for 72 hours at 37° C. in a humified atmosphere containing 5% carbon dioxide. To determine the viability of the cells, 10 μl of an Alamar Blue solution (Biosource) are added and the fluorescence is measured at an extinction of 544 nm and an emission of 590 nm. For the calculation of the cell viability the emission value from untreated cells is set as 100% viability and the emission rates of treated cells are set in relation to the values of untreated cells. Viabilities are expressed as % values.
The corresponding IC50 values of the compounds for anti-proliferative/cytotoxic activity are determined from the concentration-effect curves.
Representative IC50 values for anti-proliferation/cytotoxicity determined in the mentioned assay follow from the following table A, in which the numbers of the compounds correspond to the numbers of the examples.
In general terms: The colour change of resazurin is a common sign of viable cells or microbes.

For experiment [2], the system named is RKO colon adenocarcinoma cells (RKOp27) arrested by the expression of ectopic p27Kip1. Put plainly: Alamar Blue cell viability assay on RKOp27 cells arrested by p27Kip1 expression induced by Ponasterone A. The following applies: Homo sapiens, 72 hours incubation, 10 μM Ponasterone A, read-out: IC50 RKO p27 induced (arrested). In kind it is cell-based. Here is the method:
To determine the cell cycle specific mode of action, subclones of RKO colon adenocarcinoma cells (RKOp27 or RKOp21 as described by Schmidt et al. in Oncogene 19, 2423-2429; 2000) are seeded into 96 well flat bottom plates at a density of 15000 cells per well in a volume of 50 μl per well in DMEM growth medium with 10% FCS containing 10 μM Ponasterone A. 24 hours after seeding the 50 μl each of the compound dilutions in DMEM medium are added into each well of the 96 Well plate. Each compound dilution is tested as quadruplicates. Wells containing untreated control cells are filled with 50 μl DMEM medium containing 1% DMSO. The cells are then incubated with the substances for 72 hours at 37° C. in a humidified atmosphere containing 5% carbon dioxide. To determine the viability of the cells, 10 μl of an Alamar Blue solution (Biosource) are added and the fluorescence was measured at an extinction of 544 nm and an emission of 590 nm. For the calculation of the cell viability the emission value from untreated cells is set as 100% viability and the emission rates of treated cells are set in relation to the values of untreated cells. Viabilities are expressed as % values. Viability is compared of proliferating cells grown in the absence of the inducer Ponasterone A, versus viability of cells arrested by the expression of ectopic p27Kip1 induced by Ponasterone A.

Broadly, the IC50 is the concentration that inhibits the measured activity by half. In the case of `CCOc1ccccc1CCC(=O)Nc1sc2c(c1C#N)CCN(C(=O)Cc1ccccn1)C2` [Example 26, N-[3-Cyano-6-(2-pyridin-2-yl-ethanoyl)-4,5,6,7-tetrahydro-thieno[2,3-c]pyridin-2-yl]-3-(2-ethoxy-phenyl)-propionamide], the 50% inhibitory concentration (IC50) is at most 300 nM in experiment [1] and at least 10000 nM in experiment [2].

As to `COc1ccccc1C(C)CC(=O)Nc1sc2c(c1C#N)CCN(C(=O)Cn1cc(C)nc1C)C2` (racemic) [Example 144, (RS)—N-{3-Cyano-6-[2-(2,4-dimethyl-imidazol-1-yl)-ethanoyl]-4,5,6,7-tetrahydro-thieno[2,3-c]pyridin-2-yl}-3-(2-methoxy-phenyl)-butyramide], the IC50 in experiment [1] was 300 to 2000 nM; in experiment [2], at least 10000 nM.

With `CCOc1ccccc1CCC(=O)Nc1sc2c(c1C#N)CCN(C(=O)CCn1ccnc1)C2` [Example 102, N-[3-Cyano-6-(3-Imidazol-1-yl-propanoyl)-4,5,6,7-tetrahydro-thieno[2,3-c]pyridin-2-yl]-3-(2-ethoxy-phenyl)-propionamide], the figures for the half-maximal inhibitory concentration (IC50) in experiment [1] and in experiment [2] were at most 300 nM and at least 10000 nM, respectively.

Consider `COc1cccc(CCC(=O)Nc2sc3c(c2C#N)CCN(C(=O)Cn2cnc(C)c2)C3)c1` [Example 138, N-{3-Cyano-6-[2-(4-methyl-imidazol-1-yl)-ethanoyl]-4,5,6,7-tetrahydro-thieno[2,3-c]pyridin-2-yl}-3-(3-methoxy-phenyl)-propionamide], for which the figures for the half-maximal inhibitory concentration (IC50) in experiment [1] and in experiment [2] were 300 to 2000 nM and at least 40000 nM, respectively.

Consider `COc1ccccc1CCC(=O)Nc1sc2c(c1C#N)CCN(C(=O)Cn1cnc(C)c1)C2` [Example 139, N-{3-Cyano-6-[2-(4-methyl-imidazol-1-yl)-ethanoyl]-4,5,6,7-tetrahydro-thieno[2,3-c]pyridin-2-yl}-3-(2-methoxy-phenyl)-propionamide], for which the half-maximal inhibitory concentration (IC50) in experiment [1] was at most 300 nM; in experiment [2] it was at least 40000 nM.

For the molecule `CCCC(=O)N1CCc2c(sc(NC(=O)CC(C)c3cccc(OC)c3)c2C#N)C1` (racemic) [Example 87, (RS)—N-(6-Butyryl-3-cyano-4,5,6,7-tetrahydro-thieno[2,3-c]pyridin-2-yl)-3-(3-methoxy-phenyl)-butyramide], the IC50 was 300 to 2000 nM in experiment [1] and over 100000 nM in experiment [2].

Take `CCOc1ccccc1C(C)CC(=O)Nc1sc2c(c1C#N)CCN(C(=O)CCn1ccnc1)C2` (racemic) [Example 100, (RS)—N-[3-Cyano-6-(3-imidazol-1-yl-propanoyl)-4,5,6,7-tetrahydro-thieno[2,3-c]pyridin-2-yl]-3-(2-ethoxy-phenyl)-butyramide]: the concentration for half-maximal inhibition (IC50) in experiment [1] was 300 to 2000 nM; in experiment [2] it was at least 40000 nM.

As to `CCOc1ccccc1CCC(=O)Nc1sc2c(c1C#N)CCN(C(=O)Cn1ccnc1C)C2` [Example 131, N-{3-Cyano-6-[2-(2-methyl-imidazol-1-yl)-ethanoyl]-4,5,6,7-tetrahydro-thieno[2,3-c]pyridin-2-yl}-3-(2-ethoxy-phenyl)-propionamide], the IC50 was at most 300 nM in experiment [1] and at least 40000 nM in experiment [2].

With `COc1cccc(CCC(=O)Nc2sc3c(c2C#N)CCN(C(=O)CO)C3)c1` [Example 28, N-[3-Cyano-6-(2-hydroxy-ethanoyl)-4,5,6,7-tetrahydro-thieno[2,3-c]pyridin-2-yl]-3-(3-methoxy-phenyl)-propionamide], the IC50 in experiment [1] is 300 to 2000 nM; in experiment [2], over 100000 nM.

In the case of `COc1ccccc1CCC(=O)Nc1sc2c(c1C#N)CCN(C(=O)CCn1ccnc1C)C2` [Example 108, N-{3Cyano-6-[3-(2-methyl-imidazol-1-yl)-propanoyl]-4,5,6,7-tetrahydro-thieno[2,3-c]pyridin-2-yl}-3-(2-methoxy-phenyl)-propionamide], the IC50 in experiment [1] was 300 to 2000 nM; in experiment [2], at least 10000 nM.

Turning to `CCOc1ccccc1C(C)CC(=O)Nc1sc2c(c1C#N)CCN(C(=O)CCc1ccncc1)C2` (racemic) [Example 121, (RS)—N-[3-Cyano-6-(3-pyridin-4-yl-propanoyl)-4,5,6,7-tetrahydro-thieno[2,3-c]pyridin-2-yl]-3-(2-ethoxy-phenyl)-butyramide], the figures for the half-maximal inhibitory concentration (IC50) in experiment [1] and in experiment [2] were 300 to 2000 nM and at least 10000 nM, respectively.

For the molecule `COc1ccccc1C(C)CC(=O)Nc1sc2c(c1C#N)CCN(C(=O)CCn1ccnc1)C2` (racemic) [Example 99, (RS)—N-[3-Cyano-6-(3-imidazol-1-yl-propanoyl)-4,5,6,7-tetrahydro-thieno[2,3-c]pyridin-2-yl]-3-(2-methoxy-phenyl)-butyramide], the figures for the IC50 in experiment [1] and in experiment [2] were 300 to 2000 nM and at least 40000 nM, respectively.

On to `CCCC(=O)N1CCc2c(sc(NC(=O)CCc3ccccc3OC)c2C#N)C1` [Example 91, N-(6-Butyryl-3-cyano-4,5,6,7-tetrahydro-thieno[2,3-c]pyridin-2-yl)-3-(2-methoxy-phenyl)-propionamide], for which the IC50 in experiment [1] was at most 300 nM; in experiment [2], over 100000 nM.

In the case of `COc1ccc(C)cc1CCC(=O)Nc1sc2c(c1C#N)CCN(C(=O)CCc1cnccc1OC)C2` [Example 41, N-{3-Cyano-6-[3-(4-methoxy-pyridin-3-yl)-propanoyl]-4,5,6,7-tetrahydro-thieno[2,3-c]pyridin-2-yl}-3-(2-methoxy-5-methyl-phenyl)-propionamide], the results for the IC50 in experiment [1] and in experiment [2] were 300 to 2000 nM and at least 40000 nM, respectively.

With `COc1cccc(CCC(=O)Nc2sc3c(c2C#N)CCN(C(=O)CCc2ccncc2)C3)c1` [Example 15, N-[3-Cyano-6-(3-pyridin-4-yl-propanoyl)-4,5,6,7-tetrahydro-thieno[2,3-c]pyridin-2-yl]-3-(3-methoxy-phenyl)-propionamide], the IC50 in experiment [1] was 300 to 2000 nM; in experiment [2], over 100000 nM.

Take `COc1ccccc1C(C)CC(=O)Nc1sc2c(c1C#N)CCN(C(=O)Cn1ccnc1)C2` (racemic) [Example 82, (RS)—N-[3-Cyano-6-(2-Imidazol-1-yl-ethanoyl)-4,5,6,7-tetrahydro-thieno[2,3-c]pyridin-2-yl]-3-(2-methoxy-phenyl)-butyramide]: the 50% inhibitory concentration (IC50) is 300 to 2000 nM in experiment [1] and at least 40000 nM in experiment [2].

For the molecule `CCOc1ccccc1CCC(=O)Nc1sc2c(c1C#N)CCN(C(=O)CCn1cnc(C)c1)C2` [Example 156, N-{3-Cyano-6-[3-(4-methyl-imidazol-1-yl)-propanoyl]-4,5,6,7-tetrahydro-thieno[2,3-c]pyridin-2-yl}-3-(2-ethoxy-phenyl)-propionamide], the 50% inhibitory concentration (IC50) in experiment [1] was at most 300 nM; in experiment [2], at least 10000 nM.

As to `COc1ccc(C)cc1CCC(=O)Nc1sc2c(c1C#N)CCN(C(=O)Cc1ccncc1)C2` [Example 74, N-[3-Cyano-6-(2-pyridin-4-yl-ethanoyl)-4,5,6,7-tetrahydro-thieno[2,3-c]pyridin-2-yl]-3-(2-methoxy-5-methyl-phenyl)-propionamide], the 50% inhibitory concentration (IC50) in experiment [1] is at most 300 nM; in experiment [2], over 100000 nM.

Take `COc1cccc(CCC(=O)Nc2sc3c(c2C#N)CCN(C(=O)Cc2ccccn2)C3)c1` [Example 31, N-[3-Cyano-6-(2-pyridin-2-yl-ethanoyl)-4,5,6,7-tetrahydro-thieno[2,3-c]pyridin-2-yl]-3-(3-methoxy-phenyl)-propionamide]: the IC50 in experiment [1] is at most 300 nM; in experiment [2] it was over 100000 nM.

Turning to `CCOc1ccccc1CCC(=O)Nc1sc2c(c1C#N)CCN(C(=O)Cn1ccnc1)C2` [Example 85, N-[3-Cyano-6-(2-imidazol-1-yl-ethanoyl)-4,5,6,7-tetrahydro-thieno[2,3-c]pyridin-2-yl]-3-(2-ethoxy-phenyl)-propionamide], the IC50 in experiment [1] was at most 300 nM; in experiment [2], at least 40000 nM.

Take `CCOc1ccccc1CCC(=O)Nc1sc2c(c1C#N)CCN(C(=O)COC(C)=O)C2` [Example 10, Acetic acid 2-{3-cyano-2-[3-(2-ethoxy-phenyl)-propanoylamino]-4,7-dihydro-5H-thieno[2,3-c]pyridin-6-yl}-2-oxo-ethyl ester]: the IC50 is at most 300 nM in experiment [1] and over 100000 nM in experiment [2].
